Source: the NIST ThermoML archive (doi:10.1016/j.jct.2010.08.020)
“And” between values parts separate entries of the source, which are not always exact repeats. Equal values may be shown once. ± gives the expanded uncertainty stated by the source.

Legend:
[1] = molar enthalpy of vaporization or sublimation; conditions: 298.15 K; Crystal; drop (calvet) calorimetry
[2] = Crystal; for vapor or sublimation pressure: Calculated from knudsen effusion weight loss

molar enthalpy of sublimation ([2]; 298.15 K, drop (calvet) calorimetry) [kcal/mol] | Structure (SMILES) | molar enthalpy [1] [kcal/mol] | vapor or sublimation pressure ([2]; 299.19 K) | vapor or sublimation pressure ([2]; 301.19 K) | vapor or sublimation pressure ([2]; 303.2 K) | vapor or sublimation pressure ([2]; 305.11 K) | vapor or sublimation pressure ([2]; 307.18 K) | vapor or sublimation pressure ([2]; 309.11 K) | vapor or sublimation pressure ([2]; 311.13 K) | vapor or sublimation pressure ([2]; 313.19 K) | vapor or sublimation pressure ([2]; 315.21 K) | vapor or sublimation pressure ([2]; 317.12 K)
 | Oc1ccc(Br)cc1Br [2,4-dibromophenol] | 19.4 ± 0.717 |  |  |  |  |  |  |  |  |  | 
 | Oc1c(Br)cccc1Br [2,6-dibromophenol] | 19.9 ± 0.717 |  |  |  |  |  |  |  |  |  | 
22.5 ± 0.86 | Oc1cc(Br)cc(Br)c1 [3,5-dibromophenol] |  | 0.00012 ± 6e-06 kPa and 0.000118 ± 6e-06 kPa and 0.000117 ± 6e-06 kPa | 0.000157 ± 8e-06 kPa and 0.000146 ± 7e-06 kPa and 0.000151 ± 8e-06 kPa | 0.000196 ± 1e-05 kPa and 0.000184 ± 9e-06 kPa and 0.000189 ± 9e-06 kPa | 0.000244 ± 1.2e-05 kPa and 0.000242 ± 1.2e-05 kPa and 0.000241 ± 1.2e-05 kPa | 0.000325 ± 1.6e-05 kPa and 0.000315 ± 1.6e-05 kPa and 0.000317 ± 1.6e-05 kPa | 0.000407 ± 2e-05 kPa and 0.000414 ± 2.1e-05 kPa and 0.000389 ± 1.9e-05 kPa | 0.000502 ± 2.5e-05 kPa and 0.000501 ± 2.5e-05 kPa and 0.000493 ± 2.5e-05 kPa | 0.000663 ± 3.3e-05 kPa and 0.000629 ± 3.2e-05 kPa and 0.00065 ± 3.3e-05 kPa | 0.000813 ± 4.1e-05 kPa and 0.000838 ± 4.2e-05 kPa and 0.000801 ± 4e-05 kPa | 0.001011 ± 0.0001 kPa and 0.001023 ± 0.0001 kPa and 0.000993 ± 5e-05 kPa
